Experimental findings from patent publication US11578055B2, “Triazacyclododecansulfonamide (“TCD”)-based protein secretion inhibitors” (KEZAR LIFE SCIENCES, priority 2018, dated 2023) are described below.

The subject of series [1] is PD1 signal sequence plus 10 amino acids fused to Gaussia Luciferase (PD1-ss+10aa/Gaussia Luciferase). The series can be described thus: Dox Induced PD1-ss-Gluc Assay. The note with it: 24 hr, Dox inducible, 293FRT/TO cells; read-out: 24 hr Dox Inducible PD1ssGluc 293FRT/TO: Mean IC50. In kind it is cell-based. The method, boiled down: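 Compound dilutions in DMSO/media containing doxycycline were applied to a stable, inducible 293 T-REx line carrying the luciferase fusion, then incubated at 37 °C, 5% CO2. Where stereochemistry is not drawn, values relate to isomer mixtures.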

The subject of series [2] is full length TNFα (amino acids 1-233) fused to Gaussia Luciferase. In words: Dox Induced TNFα-FL-Gluc Assay. Type of series: cell-based. The note with it: 24 hr, Dox inducible, 293FRT/TO cells; read-out: 24 hr Dox Inducible TNFaFLGluc 293FRT/TO: Mean IC50. In a few lines: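 Compounds diluted in DMSO/medium with doxycycline were incubated at 37° C, 5% CO2 with 293 T-REx cells stably carrying a Tet-regulated TNFα(1-233)-Gaussia luciferase construct. Data for structures drawn without stereochemistry refer to stereoisomer mixtures.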

Series [3] has as its system multiple myeloma cell line NCl-H929. In words: H929 Cell Viability Assay. Type of series: cell-based, human. The note with it: Homo sapiens, NCI-H929, 48 h, H929, Celltiter-Glo. In a few lines:
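Viability was determined by CellTiter-Glo luminescence after a 48 h, 37 °C exposure of NCI-H929 cells to serial compound dilutions in medium containing 10% FBS. Where stereochemistry is not shown, values refer to a mix of stereoisomers.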

The test system of series [4] is multiple myeloma cell line U266B1. The series can be described thus: U266 Cell Viability Assay. The note with it: Homo sapiens, U-266; 48 hr, U266, Celltiter-Glo. In kind it is cell-based, human. In a few lines:
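Viability was measured by CellTiter-Glo luminescence after 48 h compound exposure at 37° C, 5% CO2. The cells were U266B1 multiple myeloma cells grown in RPMI 1640 plus 10% FBS. Where stereochemistry is not shown, values apply to the stereoisomer mixture.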
(ATP-based viability assays read luminescence as a measure of living cells.)

Series [5] is described as follows: In Vitro Microsome Stability Assay (human). Type of series: in vitro ADME. As to conditions: human liver microsomes, 30 min w/ NADPH. The method, boiled down: (§1)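 Test article, added from a 0.25 mM DMSO stock, was incubated with liver microsomes (20 mg/mL stock) in 0.1 M potassium phosphate at 37° C, with the reaction started by NADPH. Samples were quenched with acetonitrile containing internal standard at 0 and 30 min and analysed by LC-MS/MS. Values are % remaining at 30 min versus 0 min, using IS-normalised AUC ratios.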
(Microsomes from liver hold many membrane-bound enzymes, among them those of drug oxidation.)

Series [6] can be described thus: In Vitro Microsome Stability Assay (mouse). In kind it is in vitro ADME. The note with it: mouse liver microsomes, 30 min w/ NADPH. In a few lines:
as §1

A short description of series [7]: In Vitro Microsome Stability Assay (rat). Type of series: in vitro ADME. The note with it: rat liver microsomes, 30 min w/ NADPH. In a few lines:
as §1

Series [8] is described as follows: In Vitro Microsome Stability Assay (monkey). The note with it: monkey liver microsomes, 30 min w/ NADPH. Type of series: in vitro ADME. In a few lines: as §1

Structures can show the parent of a compound that is named as a salt.

On to `C=C1CN(S(=O)(=O)c2ccc(C)cc2)CCCN(CC2CCCCC2)CCC(C)N(S(=O)(=O)c2ccc(C)cc2)C1` (centres unmarked) [B1, 5-(cyclohexylmethyl)-2-methyl-11-methylene-1,9-ditosyl-1,5,9-triazacyclododecane hydrochloride], for which the results for the IC50 in series [1] and in series [2] were 0.424 µM and above 25 µM, respectively. The EC50 in series [3] and in series [4] was above 25 µM each time. The “Liver Microsome Stability-% Left after 30 min w/ NADPH (%) Human” value (from here on “Liver Microsome Stability-% Left … (%) Human”) in series [5] was found to be 0.04%. In series [6], the “Liver Microsome Stability-% Left after 30 min w/ NADPH (%) Mouse” value (from here on “Liver Microsome Stability-% Left … (%) Mouse”) is given as 0.02%. In series [7], the “Liver Microsome Stability-% Left after 30 min w/ NADPH (%) Rat” value (from here on “Liver Microsome Stability-% Left … (%) Rat”) is 0.01%. The “Liver Microsome Stability-% Left after 30 min w/ NADPH (%) Monkey” value (“Liver Microsome Stability-% Left … (%) Monkey” below) in series [8] worked out at 0.02%.

Take `C=C1CN(S(=O)(=O)c2ccc(C)cc2)CCCN(CC2CCCCC2)CC(C)CN(S(=O)(=O)c2ccc(C)cc2)C1` (centres unmarked) [B2, 1-(cyclohexylmethyl)-3-methyl-5,9-bis(4-methylbenzenesulfonyl)-7-methylidene-1,5,9-triazacyclododecane]: the IC50 was 1.72 µM in series [1] and above 25 µM in series [2]. Besides, the EC50 in series [3] and in series [4] was above 25 µM in each case. In addition, the “Liver Microsome Stability-% Left … (%) Human” value in series [5] is listed as 0.35%. Besides, the “Liver Microsome Stability-% Left … (%) Mouse” value in series [6] is 0.55%. Besides, the “Liver Microsome Stability-% Left … (%) Rat” value in series [7] is 1.46%. In series [8], the “Liver Microsome Stability-% Left … (%) Monkey” value is recorded as 0.23%.

On to `CN(C)c1ccc(S(=O)(=O)N2CCCN(CC3CCCCC3)CCCN(S(=O)(=O)N3CCCCC3)CC2)cc1` [B3, 4-{[8-(cyclohexylmethyl)-4-(piperidine-1-sulfonyl)-1,4,8-triazacycloundecan-1-yl]sulfonyl}-N,N-dimethylaniline], for which the IC50 in series [1] is 7.38 µM; in series [2], above 25 µM. The EC50 (commonly the concentration at which the effect is half-maximal) in series [3] came out at 9.44 µM; in series [4], 12.6 µM. Besides, in series [5], the “Liver Microsome Stability-% Left … (%) Human” value is reported as 0.26%. In series [6], the “Liver Microsome Stability-% Left … (%) Mouse” value was 0.15%. Also, the “Liver Microsome Stability-% Left … (%) Rat” value in series [7] worked out at 0.1%. Moreover, the “Liver Microsome Stability-% Left … (%) Monkey” value in series [8] is reported as 0.08%.

In the case of `CN(C)c1ccc(S(=O)(=O)N2CCCN(CC3CCCCC3)CCCN(S(=O)(=O)N3CCCCC3)C2)cc1` [B4, 4-{[7-(cyclohexylmethyl)-3-(piperidine-1-sulfonyl)-1,3,7-triazecan-1-yl]sulfonyl}-N,N-dimethylaniline], the IC50 in series [1] and in series [2] was above 25 µM each time. Moreover, the values for the EC50 in series [3] and in series [4] were above 25 µM and 16.6 µM, respectively. In addition, the “Liver Microsome Stability-% Left … (%) Human” value in series [5] is 12.1%. The “Liver Microsome Stability-% Left … (%) Mouse” value in series [6] was 2.21%. Further, the “Liver Microsome Stability-% Left … (%) Rat” value in series [7] is listed as 2.79%. The “Liver Microsome Stability-% Left … (%) Monkey” value in series [8] is on record as 1.7%.

As for `CN(C)c1ccc(S(=O)(=O)N2CCCCN(S(=O)(=O)N3CCC(c4ccccc4)CC3)CCCN(CC3CCCCC3)CCC2)cc1` [B5], the IC50 is 1.5 µM in series [1] and above 25 µM in series [2]. Further, the EC50 in series [3] and in series [4] was above 25 µM each time. Further, the “Liver Microsome Stability-% Left … (%) Human” value in series [5] was 0.54%. In series [6], the “Liver Microsome Stability-% Left … (%) Mouse” value amounted to 0.24%. Further, the “Liver Microsome Stability-% Left … (%) Rat” value in series [7] worked out at 7.08%. Further, in series [8], the “Liver Microsome Stability-% Left … (%) Monkey” value was 0.21%.

In the case of `CN(C)c1ccc(S(=O)(=O)NCCCN(CCCNS(=O)(=O)N2CCC(c3ccccc3)CC2)CC2CCCCC2)cc1` [B7, N-{3-[(cyclohexylmethyl)(3-{[(4-phenylpiperidin-1-yl)sulfonyl]amino}propyl)amino]propyl}-4-(dimethylamino)benzene-1-sulfonamide], the IC50 in series [1] was found to be 6.9 µM; in series [2] it was 24.3 µM. Further, the figures for the EC50 in series [3] and in series [4] were 6.86 µM and 7.48 µM, respectively. Besides, the “Liver Microsome Stability-% Left … (%) Human” value in series [5] turned out to be 0.03%. Besides, the “Liver Microsome Stability-% Left … (%) Mouse” value in series [6] is given as 1.47%. In addition, the “Liver Microsome Stability-% Left … (%) Rat” value in series [7] came to 0.58%. The “Liver Microsome Stability-% Left … (%) Monkey” value in series [8] is recorded as 0.04%.

On to `CN(C)c1ccc(S(=O)(=O)N2C/C=C\CN(S(=O)(=O)N3CCC(c4ccccc4)CC3)CCCN(CC3CCCCC3)CCC2)cc1` [B8, 4-{[(11Z)-5-(cyclohexylmethyl)-9-[(4-phenylpiperidin-1-yl)sulfonyl]-1,5,9-triazacyclotridec-11-en-1-yl]sulfonyl}-N,N-dimethylaniline], for which the IC50 in series [1] and in series [2] was above 25 µM each time. Moreover, the EC50 in series [3] and in series [4] was above 25 µM each time. For the same molecule, the “Liver Microsome Stability-% Left … (%) Human” value in series [5] amounted to 22.1%. In series [6], the “Liver Microsome Stability-% Left … (%) Mouse” value was 17.1%. The “Liver Microsome Stability-% Left … (%) Rat” value in series [7] is listed as 23.8%. In addition, the “Liver Microsome Stability-% Left … (%) Monkey” value in series [8] worked out at 15.5%.

For `CN(C)c1ccc(S(=O)(=O)N2C/C=C/CN(S(=O)(=O)N3CCC(c4ccccc4)CC3)CCCN(CC3CCCCC3)CCC2)cc1` [B9, 4-{[(11E)-5-(cyclohexylmethyl)-9-[(4-phenylpiperidin-1-yl)sulfonyl]-1,5,9-triazacyclotridec-11-en-1-yl]sulfonyl}-N,N-dimethylaniline], the IC50 in series [1] was 3.64 µM; in series [2], above 25 µM. The EC50 in series [3] and in series [4] was above 25 µM in each case. The “Liver Microsome Stability-% Left … (%) Human” value in series [5] came out at 0.49%. Further, the “Liver Microsome Stability-% Left … (%) Mouse” value in series [6] came out at 0.36%. The “Liver Microsome Stability-% Left … (%) Rat” value in series [7] was 3.74%. In series [8], the “Liver Microsome Stability-% Left … (%) Monkey” value is 0.26%.

As for `C=C1CN(S(=O)(=O)c2ccc(N(C)C)cc2)C(C)CCN(CC2CCCCC2)CCCN(S(=O)(=O)N2CCC(c3ccccc3)CC2)C1` (centres unmarked) [B19, 4-{[5-(cyclohexylmethyl)-2-methyl-11-methylidene-9-[(4-phenylpiperidin-1-yl)sulfonyl]-1,5,9-triazacyclododecan-1-yl]sulfonyl}-N,N-dimethylaniline], the IC50 in series [1] worked out at 0.221 µM; in series [2], 15.4 µM. In addition, the half-maximal effective concentration (EC50) in series [3] and in series [4] was above 25 µM throughout. Moreover, in series [5], the “Liver Microsome Stability-% Left … (%) Human” value came out at 9.46%. In addition, in series [6], the “Liver Microsome Stability-% Left … (%) Mouse” value is recorded as 13.5%. The “Liver Microsome Stability-% Left … (%) Rat” value in series [7] is listed as 15.7%. Further, the “Liver Microsome Stability-% Left … (%) Monkey” value in series [8] amounted to 0.98%.

Turning to `CN(C)c1ccc(S(=O)(=O)N2CCCN(CC3CCCCC3)CCCN(S(=O)(=O)N3CCC(c4ccccc4)CC3)CC(=O)C2)cc1` [B20, 9-(cyclohexylmethyl)-1-((4-(dimethylamino)phenyl)sulfonyl)-5-((4-phenylpiperidin-1-yl)sulfonyl)-1,5,9-triazacyclododecan-3-one], the results for the IC50 in series [1] and in series [2] were 0.794 µM and above 25 µM, respectively. Moreover, the concentration giving a half-maximal response (EC50) in series [3] and in series [4] was above 25 µM in each case. The “Liver Microsome Stability-% Left … (%) Human” value in series [5] was determined as 5.43%. Further, the “Liver Microsome Stability-% Left … (%) Mouse” value in series [6] is 3.41%. The “Liver Microsome Stability-% Left … (%) Rat” value in series [7] was determined as 11.1%. For the same molecule, in series [8], the “Liver Microsome Stability-% Left … (%) Monkey” value is 1.73%.
